Laboratory results from US20260151375A1, “CDK2 INHIBITORS AND METHODS OF USING THE SAME” (Cedilla Therapeutics, Inc., priority 2022, published 2026).
Where two headings read alike, the source gives them in different places.

How the values were obtained:
Kuramochi cells = assay: IncuCyte Kuramochi Assay (cell proliferation); type: cell-based; conditions: Kuramochi cells labeled with mApple-H2B, cell count, read-out: IncuCyte - Kuramochi RB-WT: IC50
Summary of the method: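 GI50 came from dose-response fits of cell-count fold change between 0 and 72 h, normalized to DMSO controls. Counts were fluorescent nuclei from live-cell images over a 10-point, ½ log series starting at 20 μM.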

CDK2/Cyclin E1 = molecular target: T1, CDK2/Cyclin E1 (Homo sapiens, UniProt P24941); assay: ADPGLO (CDK2/E1-37 C), ADP-Glo Luminescent Kinase Assay; type: biochemical; conditions: 0.18 nM CDK2/Cyclin E1, 100 μM ATP, Histone H1, 37° C.
T1 construct: purchased 14-475
Procedure: Inhibition of CDK2/Cyclin E1 activity by the presence of small molecules was evaluated using ADP-Glo Luminescent Kinase Assay (Promega). Activated CDK2/Cyclin E1 was incubated with its substrate Histone H1 (SignalChem H10-54N) in the kinase reaction buffer (100 μM ATP, 50 mM HEPES pH 7.5, 10 mM MgCl2, 1 mM EDTA, 2 mM DTT, 0.01% Brij35, 0.5 mg/mL BSA). Luminescence was recorded with an Envision plate reader (PerkinElmer).
Dose titrations of inhibitors in 100% DMSO were combined with 0.36 nM CDK2/Cyclin E1 in reaction buffer. The mixtures were incubated for 60 minutes at 37° C. before the addition of ATP and Histone H1 substrate to initiate the kinase reaction. The final conditions were 0.18 nM CDK2/Cyclin E1, 100 μM ATP, and 1.5 μM Histone H1. The reactions were incubated at 37° C. for 90 minutes before being stopped with the addition of ADP-Glo reagent. This mixture was incubated at room temperature for 60 minutes before Kinase Detection Solution is added to generate luminescence. The stopped reactions were analyzed on an Envision plate reader. The conversion ratios were normalized to yield % activity, plotted against compound concentration, and fit to a four-parameter equation to determine the IC50 for each compound.

| IC50 (CDK2/Cyclin E1) [µM] | SMILES | IC50 (Kuramochi cells; 72 h) [µM] | IC50 (Kuramochi cells; 72 hours) [µM] |
| --- | --- | --- | --- |
| > 10 | O=C(c1cncc(O)n1)N1CC(c2nnc(C(F)(F)c3ccc(Cl)c(Cl)c3)o2)C2(C1)CN(C(=O)[C@H]1CC1(F)F)C2 (stereo partly drawn) [I-112, (8-(5-((3,4-dichlorophenyl)difluoromethyl)-1,3,4-oxadiazol-2-yl)-2-((R)-2,2-difluorocyclopropane-1-carbonyl)-2,6-diazaspiro[3.4]octan-6-yl)(6-hydroxypyrazin-2-yl)methanone] | > 10 |  |
| 0.5 to 5 | CC(c1nc(C2CN(C(=O)c3cnn(Cc4ccc(C(O)C(F)(F)F)cc4)c3)CC23CN(C(=O)[C@H]2CC2(C)C)C3)no1)n1ccc(C2CCCC2)n1 (stereo partly shown) [I-113] | 0.5 to 5 |  |
| 0.5 to 5 | CC(c1nc(C2CN(C(=O)c3cnc(O)cn3)CC23CN(C(=O)C2(C(F)(F)F)CC2)C3)no1)n1ccc(C2CCOCC2)n1 (stereo not shown) [I-115] | 5 to 10 |  |
| > 10 | CC(c1nc(C2CN(C(=O)c3cnc(O)cn3)CC23CN(C(=O)[C@H]2CC2(F)F)C3)no1)n1ccc(C2CCOCC2)n1 (stereo partly drawn) [I-116, (2-((R)-2,2-difluorocyclopropane-1-carbonyl)-8-(5-(1-(3-(tetrahydro-2H-pyran-4-yl)-1H-pyrazol-1-yl)ethyl)-1,2,4-oxadiazol-3-yl)-2,6-diazaspiro[3.4]octan-6-yl)(5-hydroxypyrazin-2-yl)methanone] | > 10 |  |
| 0.5 to 5 | COC(=O)c1ccc(Cn2cc(C(=O)N3CC(c4noc(C(C)n5ccc(C6CCCC6)n5)n4)C4(C3)CN(C(=O)[C@H]3CC3(C)C)C4)cn2)cn1 (stereo partly shown) [I-117] | > 10 |  |
| 0.5 to 5 | CC(c1nc(C2CN(C(=O)c3cnn(CC#N)c3)CC23CN(C(=O)[C@H]2CC2(C)C)C3)no1)n1ccc(C2CCCC2)n1 (stereo partly drawn) [I-119, 2-(4-(8-(5-(1-(3-cyclopentyl-1H-pyrazol-1-yl)ethyl)-1,2,4-oxadiazol-3-yl)-2-((S)-2,2-dimethylcyclopropane-1-carbonyl)-2,6-diazaspiro[3.4]octane-6-carbonyl)-1H-pyrazol-1-yl)acetonitrile] | > 10 |  |
| > 10 | O=C(c1cc(O)n[nH]1)N1CC(c2nnc(C(F)(F)c3ccc(Cl)c(Cl)c3)o2)C2(C1)CN(C(=O)[C@H]1CC1(F)F)C2 (stereo partly drawn) [I-120, (8-(5-((3,4-dichlorophenyl)difluoromethyl)-1,3,4-oxadiazol-2-yl)-2-((R)-2,2-difluorocyclopropane-1-carbonyl)-2,6-diazaspiro[3.4]octan-6-yl)(3-hydroxy-1H-pyrazol-5-yl)methanone] | > 10 |  |
| 0.5 to 5 | CC(c1nc(C2CN(C(=O)c3cnn(Cc4ccc(-c5nnn[nH]5)cc4)c3)CC23CN(C(=O)[C@H]2CC2(C)C)C3)no1)n1ccc(C2CCCC2)n1 (stereo partly drawn) [I-121, (1-(4-(1H-tetrazol-5-yl)benzyl)-1H-pyrazol-4-yl)(8-(5-(1-(3-cyclopentyl-1H-pyrazol-1-yl)ethyl)-1,2,4-oxadiazol-3-yl)-2-((S)-2,2-dimethylcyclopropane-1-carbonyl)-2,6-diazaspiro[3.4]octan-6-yl)methanone] | > 10 |  |
| 5 to 10 | CC(c1nc(C2CN(C(=O)c3cnn(Cc4ccc(C(=O)O)c(O)c4)c3)CC23CN(C(=O)[C@H]2CC2(C)C)C3)no1)n1ccc(C2CCCC2)n1 (stereo partly drawn) [I-122, 4-((4-(8-(5-(1-(3-cyclopentyl-1H-pyrazol-1-yl)ethyl)-1,2,4-oxadiazol-3-yl)-2-((S)-2,2-dimethylcyclopropane-1-carbonyl)-2,6-diazaspiro[3.4]octane-6-carbonyl)-1H-pyrazol-1-yl)methyl)-2-hydroxybenzoic acid] | > 10 |  |
| ≤ 0.5 | CC(c1nc(C2CN(C(=O)c3cnn(Cc4ccccc4C(=O)O)c3)CC23CN(C(=O)[C@H]2CC2(C)C)C3)no1)n1ccc(C2CCCC2)n1 (stereo partly shown) [I-123] | > 10 |  |
| 0.5 to 5 | CC(c1nc(C2CN(C(=O)c3cnn(Cc4ccc(OC(C)(C)C(=O)O)cc4)c3)CC23CN(C(=O)[C@H]2CC2(C)C)C3)no1)n1ccc(C2CCCC2)n1 (stereo partly shown) [I-124] | > 10 |  |
| > 10 | CC(c1nc(C2CN(C(=O)c3cnn(Cc4ccc(C#N)cc4)c3)CC23CN(C(=O)C2(C(F)(F)F)CC2)C3)no1)n1ccc(C(F)(F)F)n1 (stereo not shown) [I-207] | > 10 |  |
| > 10 | C=CC(=O)N(C)c1cccc(Cc2ccc(Cn3cc(C(=O)N4CC(c5nnc(C(F)(F)c6ccc(Cl)c(Cl)c6)o5)C5(C4)CN(C(=O)C4(C(F)(F)F)CC4)C5)cn3)cc2)c1 (stereo not shown) [I-208] | > 10 |  |
| > 10 | O=C(c1cnc(O)cn1)N1CC(c2nnc(C(C(=O)N3CCC(c4nccs4)CC3)c3ccc(C4CCOCC4)cc3)o2)C2(C1)CN(C(=O)C1(C(F)(F)F)CC1)C2 (stereo not shown) [I-209] | ≤ 0.5 |  |
| 0.5 to 5 | CC(c1nc(C2CN(C(=O)c3cnn(Cc4ccc(C#N)cc4)c3)CC23CN(C(=O)C2(C(F)(F)F)CC2)C3)no1)n1ccc(C2CCC(F)(F)CC2)n1 (stereo not shown) [I-210] | ≤ 0.5 |  |
| > 10 | O=C(c1cnn(Cc2ccc(C(F)(F)F)cc2)c1)N1CC(c2noc(N(Cc3ccc(Cl)c(Cl)c3)CC3CCOCC3)n2)C2(C1)CN(C(=O)C1(C(F)(F)F)CC1)C2 (stereo not shown) [I-213, (8-(5-((3,4-dichlorobenzyl)((tetrahydro-2H-pyran-4-yl)methyl)amino)-1,2,4-oxadiazol-3-yl)-2-(1-(trifluoromethyl)cyclopropane-1-carbonyl)-2,6-diazaspiro[3.4]octan-6-yl)(1-(4-(trifluoromethyl)benzyl)-1H-pyrazol-4-yl)methanone] | 5 to 10 |  |
| 0.5 to 5 | CC(c1nc(C2CN(C(=O)c3cnn(Cc4ccc(C#N)cc4C(=O)O)c3)CC23CN(C(=O)C2(C(F)(F)F)CC2)C3)no1)n1ccc(C2(C(F)(F)F)CC2)n1 (stereo not shown) [I-214] | > 10 |  |
| 0.5 to 5 | COC(=O)c1cc(C#N)ccc1Cn1cc(C(=O)N2CC(c3noc(C(C)n4ccc(C5(C(F)(F)F)CC5)n4)n3)C3(C2)CN(C(=O)C2(C(F)(F)F)CC2)C3)cn1 (stereo not shown) [I-215] | 5 to 10 |  |
| ≤ 0.5 | O=C(c1cnn(Cc2ccc(C(F)(F)F)cc2)c1)N1CC(c2nnc(C(C(=O)N3CCC(c4nccs4)CC3)c3ccc(C4CCOCC4)cc3)o2)C2(C1)CN(C(=O)C1(C(F)(F)F)CC1)C2 (stereo not shown) [I-216, 2-(4-(tetrahydro-2H-pyran-4-yl)phenyl)-1-(4-(thiazol-2-yl)piperidin-1-yl)-2-(5-(6-(1-(4-(trifluoromethyl)benzyl)-1H-pyrazole-4-carbonyl)-2-(1-(trifluoromethyl)cyclopropane-1-carbonyl)-2,6-diazaspiro[3.4]octan-8-yl)-1,3,4-oxadiazol-2-yl)ethan-1-one] | 0.5 to 5 |  |
| 0.5 to 5 | CC(c1nc(C2CN(C(=O)c3cnn(Cc4ccc(C(F)(F)F)cc4)c3)CC23CN(C(=O)C2(C(F)(F)F)CC2)C3)no1)n1ccc(C23CCC(CC2)OC3)n1 (stereo not shown) [I-217, (8-(5-(1-(3-(2-oxabicyclo[2.2.2]octan-4-yl)-1H-pyrazol-1-yl)ethyl)-1,2,4-oxadiazol-3-yl)-2-(1-(trifluoromethyl)cyclopropane-1-carbonyl)-2,6-diazaspiro[3.4]octan-6-yl)(1-(4-(trifluoromethyl)benzyl)-1H-pyrazol-4-yl)methanone] | 5 to 10 |  |
| > 10 | CC(c1nc(C2CN(C(=O)c3cnn(Cc4ccc(C(F)(F)F)cc4C(=O)O)c3)CC23CN(C(=O)C2(C(F)(F)F)CC2)C3)no1)n1ccc(C2(C(F)(F)F)CC2)n1 (stereo not shown) [I-218, 5-(trifluoromethyl)-2-((4-(2-(1-(trifluoromethyl)cyclopropane-1-carbonyl)-8-(5-(1-(3-(1-(trifluoromethyl)cyclopropyl)-1H-pyrazol-1-yl)ethyl)-1,2,4-oxadiazol-3-yl)-2,6-diazaspiro[3.4]octane-6-carbonyl)-1H-pyrazol-1-yl)methyl)benzoic acid] | > 10 |  |
| > 10 | COC(=O)c1cc(C(F)(F)F)ccc1Cn1cc(C(=O)N2CC(c3noc(C(C)n4ccc(C5(C(F)(F)F)CC5)n4)n3)C3(C2)CN(C(=O)C2(C(F)(F)F)CC2)C3)cn1 (stereo not shown) [I-219, methyl 5-(trifluoromethyl)-2-((4-(2-(1-(trifluoromethyl)cyclopropane-1-carbonyl)-8-(5-(1-(3-(1-(trifluoromethyl)cyclopropyl)-1H-pyrazol-1-yl)ethyl)-1,2,4-oxadiazol-3-yl)-2,6-diazaspiro[3.4]octane-6-carbonyl)-1H-pyrazol-1-yl)methyl)benzoate] | > 10 |  |

| SMILES | IC50 (CDK2/Cyclin E1) [µM] | IC50 (Kuramochi cells; 72 h) [µM] | IC50 (Kuramochi cells; 72 hours) [µM] |
| --- | --- | --- | --- |
| CC(c1nc(C2CN(C(=O)c3cnn(Cc4nnn[nH]4)c3)CC23CN(C(=O)[C@H]2CC2(C)C)C3)no1)n1ccc(C2CCCC2)n1 (stereo partly drawn) [I-114, (1-((1H-tetrazol-5-yl)methyl)-1H-pyrazol-4-yl)(8-(5-(1-(3-cyclopentyl-1H-pyrazol-1-yl)ethyl)-1,2,4-oxadiazol-3-yl)-2-((S)-2,2-dimethylcyclopropane-1-carbonyl)-2,6-diazaspiro[3.4]octan-6-yl)methanone] | 0.5 to 5 |  | > 10 |
